Test [1] deals with T1, SERPINB9 (Homo sapiens, UniProt P50453).
T1 construct: A construct of human SERPINB9 covering residues 2-376 in the pFastBacl vector; made in house; host or cells: insect Tni (Trichoplusia ni) cells, baculovirus
T1 sequence (P50453 2-376): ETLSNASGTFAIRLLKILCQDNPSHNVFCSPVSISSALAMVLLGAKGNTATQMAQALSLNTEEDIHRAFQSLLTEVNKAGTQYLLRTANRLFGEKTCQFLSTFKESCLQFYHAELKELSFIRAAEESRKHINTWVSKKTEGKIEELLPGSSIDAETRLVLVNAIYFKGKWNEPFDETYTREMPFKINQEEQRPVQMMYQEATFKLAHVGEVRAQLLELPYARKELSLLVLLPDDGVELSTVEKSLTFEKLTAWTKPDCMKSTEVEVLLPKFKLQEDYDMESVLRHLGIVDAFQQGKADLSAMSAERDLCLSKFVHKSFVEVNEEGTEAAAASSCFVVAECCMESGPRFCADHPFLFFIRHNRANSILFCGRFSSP
The test is described as follows: Ligand-detected NMR (DLB, STD, CPMG-R2). It counts as binding. The source says: Ligand-focused NMR. To test the binding of Compound 27 and Compound 225 to SERPINB9, we used three ligand-detected nuclear magnetic resonance (NMR) methods: differential line broadening (DLB), saturation transfer difference (STD), and Carr-Purcell-Meiboom-Gill-transverse relaxation rate (CPMG-R2). […] Second, on-resonance saturation of SERPINB9 decreased the intensity of compound peaks in the STD experiment, indicating transmission of magnetization energy from SERPINB9 to proximal ligands. Finally, as ligands engaging the target protein relax faster (compared to free small molecules that have slow transverse relaxation rates in CPMG-R2 experiments), we saw a decreased relaxation time in the presence of a protein directly indicating binding of the ligand to that protein.

Test [2] concerns the target T1, SERPINB9. The experiment in a line: Isothermal titration calorimetry (ITC). The conditions noted are these: 20 μM SERPINB9 titrated with 200 μM compound, single site model. Type of test: binding. The method, then: In an attempt to produce a soluble variant of Sb9, a construct was designed in which a maltose-binding protein (MBP) was added at the N-terminus (FIG. 4B). Sb9 was soluble in multiple growth media conditions using this strategy. The condition (1 mM IPTG, 37° C., 3 h) for best expression was selected for biomass production with 5 L culture. The cells were lysed and clarified by centrifugation. The fusion protein was then captured by Ni-NTA affinity purification, such that it was eluted using high concentration imidazole. Then, the resulting protein was further purified by anionic exchange chromatography using a MonoQ column and a NaCl gradient for elution. An amount of 31.4 mg protein was obtained. The purified Sb9 protein was characterized by SDS-PAGE and MALDI-TOF mass spectrometry (MS). A construct of human SERPINB9 covering residues 2-376 in the pFastBacl vector (Invitrogen) was overexpressed in insect Tni (Trichoplusia ni.) cells adapted for suspension culture in ESF921 medium (Expression systems). Cells were grown at 27° C. to a density of ˜2 million cells per mL, infected with baculovirus containing SERPINB9 construct, collected by centrifugation around 60 hrs post-infection, and stored at −80° C. […]
(In general: In ITC the heat of successive injections is recorded.)

Test [3] deals with B16-WT and B16-Sb9 KO cells. The test is described as follows: IL2-induced GrB expression and apoptosis by flow cytometry. Type of test: cell-based, mouse. The conditions noted are these: 10 μM; IL2 70 ng/mL, 48 h. The text has this:
FIG. 1H. […] Data are expressed as means±SD from three independent experiments. ***P<0.001 (Student's t-test).
FIGS. 1J-1K. […] Cells treated with PBS alone were used as a negative control. Data are expressed as means±SD from three independent experiments. *P<0.05, ***P<0.001 (Student's t-test).
On the technique in general: A flow cytometer gives signals particle by particle.

For test [4], the system named is MBP-Sb9. The test is described as follows: Thermal stability assay (TSA) fragment screen. Type of test: binding. The conditions noted are these: 5000 to 21 μM. The method, then: FIG. 4A. The upper panels show the TSA results of the MBP-Sb9 protein incubated with 5 mM 3,4-dihydroxybenzoic acid (3,4-DHBA; left) and 3-oxo-1-indancarboxylic acid (right), or with 2.5% DMSO. The thermal shifts of the compounds 3,4-dihydroxybenzoic acid and 3-oxo-1-indancarboxylic acid are shown in a thick dark line against a baseline control shown as a thin gray line. The bottom panels show the TSA results of the MBP-Sb9 protein incubated with 3,4-dihydroxybenzoic acid (left) or 3-oxo-1-indancarboxylic acid (right) at different concentrations, including 5000, 1667, 556, 185, 62, and 21 μM. The concentration-response curves are plotted in a black/gray color scale (higher intensity is higher concentration) and the straight line plots represent the compound background signal.
TSA is an analytic tool to estimate the overall stability of a protein by monitoring the shift in its melting temperature upon changing the buffer conditions or titrating various ligands. As the protein unfolds with increasing temperature in a thermal cycler (CFX384 Touch Real-Time PCR Detection System), SYPRO orange dye binds to the exposed hydrophobic core and fluoresces, leading to the signal that is measured in comparison to temperature to produce a melt curve. […] Dye was added at 2×strength, and the readings were performed from 25° C. to 95° C. at 0.5° C. intervals. […]

Another test addresses MBP (Escherichia coli, UniProt P0AEX9). The experiment in a line: SPR negative control channel. It counts as binding. The procedure:
FIG. 4B. Sensorgrams of compounds 3,4-dihydroxybenzoic acid (top), 3-oxo-1-indancarboxylic acid (middle), and the compound of Formula (III) (bottom) show the binding of 3,4-dihydroxybenzoic acid and the compound of Formula (III) to Sb9 (top), but not to MBP (bottom) by Surface Plasmon Resonance (SPR).
All assays were run at 25° C. on a BiOptix 404pi. An NTA biosensor chip was used in this study to pre-concentrate 3 μM MBP-Sb9 via an N-terminal His-tag. MBP-Sb9 was covalently immobilized with EDC/NHS in 20 mM HEPES pH 8.0, 150 mM NaCl, 0.05% Tween-20, 5 mM β-ME to 10,000 to 15,000 RUs. MBP was similarly immobilized on a separate channel as a negative control.

Test [5] has as its target T2, MBP-Sb9 (Homo sapiens, UniProt P50453).
T2 construct: made in house
The experiment in a line: Surface plasmon resonance (SPR) binding. To be noted: 25° C., 1:1 Langmuir model. The procedure: Surface plasmon resonance (SPR) measures change in refractive index on a biosensor surface, as analytic mass accumulates via binding to an attached ligand. This allows derivation of affinity (KD) from measured kinetic rates of association (ka) and dissociation (kd). All assays were run at 25° C. on a BiOptix 404pi. An NTA biosensor chip was used in this study to pre-concentrate 3 μM MBP-Sb9 via an N-terminal His-tag. MBP-Sb9 was covalently immobilized with EDC/NHS in 20 mM HEPES pH 8.0, 150 mM NaCl, 0.05% Tween-20, 5 mM β-ME to 10,000 to 15,000 RUs. MBP was similarly immobilized on a separate channel as a negative control. Compounds were injected as 3-fold serial dilutions in duplicate starting at 200 μM. Injections were done at 50 μL/min for 60 seconds, followed by a 120 second dissociation in 20 mM HEPES, pH 8.0, 150 mM NaCl, 0.05% Tween-20, 5 mM j-ME, 1% DMSO. A series of five DMSO standards between 0.5% and 1.5% were included with each run to correct for bulk refractive index. Sensorgrams were analyzed using Scrubber 2 software with a double reference and fit to a 1:1 Langmuir model to determine the interaction parameters KD, ka, and kd.
(In general: Surface plasmon resonance follows binding to a sensor surface in real time, without labels.)

pKd: −log10 of the molar value. Residues, ends and D or L forms follow the SMILES beside them. *: point of attachment. Cbz = O=C(OCc1ccccc1)*; CH2Cl = ClC*

The term pKd denotes the negative decadic logarithm of the Kd, by convention in mol/L. Lower therefore signals a large Kd.

T2 sequence (P50453 whole entry): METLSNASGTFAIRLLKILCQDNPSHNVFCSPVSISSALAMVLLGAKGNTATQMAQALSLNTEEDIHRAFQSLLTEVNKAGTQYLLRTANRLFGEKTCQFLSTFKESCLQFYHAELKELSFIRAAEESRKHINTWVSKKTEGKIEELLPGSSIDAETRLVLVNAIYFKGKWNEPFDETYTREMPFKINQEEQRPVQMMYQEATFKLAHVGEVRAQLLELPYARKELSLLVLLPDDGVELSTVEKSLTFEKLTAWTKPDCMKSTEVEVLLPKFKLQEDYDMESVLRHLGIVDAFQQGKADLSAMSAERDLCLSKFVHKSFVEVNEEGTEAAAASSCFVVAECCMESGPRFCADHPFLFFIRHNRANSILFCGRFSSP

In the case of `CCN(C)C(=O)c1ccc2nc(-c3ccccc3)oc2c1` [Compound 27, N-ethyl-N-methyl-2-phenyl-1,3-benzoxazole-6-carboxamide], at SERPINB9 [1], the “binding to SERPINB9 by ligand-detected NMR” value is “SERPINB9 binders”. The same compound gave a negative-log Kd (pKd) at SERPINB9 [2] of 4.67.
For `CCOc1ccc(C(=O)NCc2ccccc2)cc1O` [Compound 227, N-benzyl-4-ethoxy-3-hydroxybenzamide], the “binding to SERPINB9 by ligand-detected NMR” value at SERPINB9 [1] is given as “SERPINB9 binders”. Also, on SERPINB9 [2], the pKd was 4.54.
In the case of `C[C@H](NC(=O)OCc1ccccc1)C(=O)N[C@@H](C)C(=O)N[C@@H](CC(=O)O)C(=O)CCl` [GrB inhibitor (368050)] (Cbz-Ala-Ala-Asp-CH2Cl), the “apoptosis of IL2-treated cells” value in test [3] is on record as “suppresses apoptosis”.
As for `O=C1CC(C(=O)O)c2ccccc21` (stereo not drawn) [3-oxo-1-indancarboxylic acid], the Tm1 shift entry in the test with MBP-Sb9 [4] is on record as “dose-dependent Tm1 shift”.
Consider `O=C(O)c1ccc(O)c(O)c1` [3,4-dihydroxybenzoic acid, reference compound], for which, on MBP, the “binding to MBP (negative control)” value is listed as “not to MBP”. The Tm1 shift entry in the test on MBP-Sb9 [4] is “dose-dependent Tm1 shift”. Also, the pKd at MBP-Sb9 [5] was 4.06.

For the origin of these results see patent US20230255906A1, “Targeting Serpin B9 in Cancer” (The Brigham and Women`s Hospital, Inc., priority 2020, published 2023).
